pIC50: −log10 of the molar value.
How the values were obtained:
[1] = target: T1, Prostaglandin G/H synthase 2 (Homo sapiens, UniProt P35354); type: tissue-based, Blood
T1 sequence (P35354 whole entry): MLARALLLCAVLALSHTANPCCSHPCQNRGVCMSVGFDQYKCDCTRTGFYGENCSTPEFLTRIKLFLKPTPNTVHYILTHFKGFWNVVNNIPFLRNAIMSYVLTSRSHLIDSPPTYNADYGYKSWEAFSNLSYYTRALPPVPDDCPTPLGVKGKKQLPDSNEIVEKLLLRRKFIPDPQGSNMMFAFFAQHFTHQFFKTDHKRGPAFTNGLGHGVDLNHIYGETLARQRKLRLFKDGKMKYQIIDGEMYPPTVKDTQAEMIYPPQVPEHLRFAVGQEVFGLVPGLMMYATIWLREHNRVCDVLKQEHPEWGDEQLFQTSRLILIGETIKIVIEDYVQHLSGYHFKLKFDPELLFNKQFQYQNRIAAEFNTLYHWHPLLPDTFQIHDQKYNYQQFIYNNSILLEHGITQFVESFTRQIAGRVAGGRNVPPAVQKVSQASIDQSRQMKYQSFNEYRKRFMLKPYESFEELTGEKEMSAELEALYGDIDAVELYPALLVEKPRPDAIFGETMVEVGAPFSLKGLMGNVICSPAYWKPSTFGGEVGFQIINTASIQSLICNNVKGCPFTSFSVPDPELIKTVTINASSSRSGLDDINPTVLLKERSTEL
Description: In vitro inhibitory concentration against Prostaglandin G/H synthase 2 in human whole blood assay

[2] = target: Prostaglandin G/H synthase 1 (Homo sapiens, UniProt P23219); experiment: In vitro inhibitory concentration against Prostaglandin G/H synthase 1 in human whole blood assay; type: tissue-based
Sequence of Prostaglandin G/H synthase 1 (P23219 whole entry): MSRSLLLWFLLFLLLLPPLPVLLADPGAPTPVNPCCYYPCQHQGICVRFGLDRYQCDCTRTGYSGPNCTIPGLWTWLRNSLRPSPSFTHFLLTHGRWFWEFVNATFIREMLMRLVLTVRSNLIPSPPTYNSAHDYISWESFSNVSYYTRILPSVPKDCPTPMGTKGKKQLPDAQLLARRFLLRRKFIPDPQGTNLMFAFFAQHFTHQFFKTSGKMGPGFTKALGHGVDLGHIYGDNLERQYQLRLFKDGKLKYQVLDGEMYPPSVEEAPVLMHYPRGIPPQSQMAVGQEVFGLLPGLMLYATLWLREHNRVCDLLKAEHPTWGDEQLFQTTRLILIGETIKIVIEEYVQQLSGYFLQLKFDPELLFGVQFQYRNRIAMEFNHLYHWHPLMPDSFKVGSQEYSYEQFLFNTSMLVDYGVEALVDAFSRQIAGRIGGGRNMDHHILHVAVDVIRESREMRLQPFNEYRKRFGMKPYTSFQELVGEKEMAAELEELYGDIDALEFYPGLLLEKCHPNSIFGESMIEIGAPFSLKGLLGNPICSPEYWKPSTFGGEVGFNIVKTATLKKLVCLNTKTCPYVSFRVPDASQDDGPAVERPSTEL

Row | pIC50 [1] | pIC50 [2] | Compound
1 | < 4.00 | < 4.00 | Cc1cc(C)c(S(N)(=O)=O)c(C)c1-c1noc(C)c1-c1ccccc1
2 | < 4.00 | < 4.00 | Cc1onc(-c2ccc(Cl)o2)c1-c1ccc(S(N)(=O)=O)cc1
3 | < 4.00 | < 4.00 | COc1cc(OC)c(-c2noc(C)c2-c2ccccc2)c(OC)c1
4 | < 4.00 | < 4.00 | COc1cc(OC)c(-c2noc(C)c2-c2ccc(S(N)(=O)=O)cc2)c(OC)c1Cl
5 | < 4.00 | < 4.00 | COc1cc(OC)c(-c2noc(C)c2-c2ccccc2)c(OC)c1Cl
6 | < 4.00 | < 4.00 | Cc1cc(C)c(S(N)(=O)=O)c(C)c1-c1noc(C)c1-c1ccc(S(N)(=O)=O)cc1
7 | < 4.00 | – | Cc1onc(-c2ccc(Cl)o2)c1-c1ccccc1
8 | < 4.00 | < 4.00 | Cc1cc(C)c(-c2noc(C)c2-c2ccccc2)c(C)c1
